From ChEMBL document CHEMBL6134781, “In vitro identification of oridonin hybrids as potential anti-TNBC agents inducing cell cycle arrest and apoptosis by regulation of p21, γH2AX and cleaved PARP” (RSC Med Chem, 2024)

Legend:
MDA-MB-231 = test: Cytotoxicity against human MDA-MB-231 cells assessed as inhibition of cell viability incubated for 72 hrs by SRB assay; format: functional, cell-based; details: MDA-MB-231, 72 h
HCC1806 = test: Cytotoxicity against human HCC1806 cells assessed as inhibition of cell viability incubated for 72 hrs by SRB assay; format: functional, cell-based; details: HCC1806, 72 h
[1] = Stability in human plasma assessed as half life at 100 uM by LC-MS/MS analysis; format: ADME, cell-free

Row | SMILES | IC50 (MDA-MB-231) [µM] | IC50 (HCC1806) [µM] | half-life at 100 µM [1] [h]
1 | C=C1C(=O)[C@]23[C@H](OC(=O)Cc4cc(OC)c(OC)c(OC)c4)[C@H]1CC[C@H]2[C@@]12CO[C@]3(O)[C@@H](O)[C@@H]1C(C)(C)CCC2=O | > 10 | > 10 | –
2 | C=C1C(=O)[C@@]23C(=O)[C@@H]4OC[C@]5(C(=O)CCC(C)(C)[C@@H]45)[C@@H]2CC[C@@H]1[C@H]3OC(=O)c1ccc(N(CCCl)CCCl)cc1 | 5.7 | > 10 | –
3 | C=C1C(=O)[C@]23[C@H](OC(=O)C45CC6CC(CC(C6)C4)C5)[C@H]1CC[C@H]2[C@@]12CO[C@]3(O)[C@@H](O)[C@@H]1C(C)(C)CC[C@@H]2OC(C)=O | 0.55 | 1.48 | –
4 | C=C1C(=O)[C@@]23C(=O)[C@@H]4OC[C@]5(C(=O)CCC(C)(C)[C@@H]45)[C@@H]2CC[C@@H]1[C@H]3OC(=O)Cc1ccccc1Br | > 10 | > 10 | –
5 | C=C1C(=O)[C@]23[C@H](OC(=O)Cc4ccc(OC)c(OC)c4)[C@H]1CC[C@H]2[C@]12C=CCC(C)(C)[C@H]1[C@H](O)[C@@]3(O)OC2 | > 10 | > 10 | –
6 | C=C1C(=O)[C@@]23C(=O)[C@@H]4OC[C@]5(C(=O)CCC(C)(C)[C@@H]45)[C@@H]2CC[C@@H]1[C@H]3OC(=O)C12CC3CC(CC(C3)C1)C2 | 3.26 | 5.59 | –
7 | C=C1C(=O)[C@]23[C@H](O)[C@H]1CC[C@H]2[C@@]12CO[C@]3(O)[C@@H](O)[C@@H]1C(C)(C)CC[C@@H]2O [ORIDONIN] | 5.31 | 12.6 | 1.45
8 | C=C1C(=O)[C@@]23C(=O)[C@@H]4OC[C@@]5([C@H]4C(C)(C)CC[C@@H]5O)[C@@H]2CC[C@@H]1[C@H]3OC(=O)C12CC3CC(CC(C3)C1)C2 | 1.5 | 2.13 | –
9 | C=C1C(=O)[C@@]23C(=O)[C@@H]4OC[C@]5(C=CCC(C)(C)[C@@H]45)[C@@H]2CC[C@@H]1[C@H]3OC(=O)Cc1cc(OC)c(OC)c(OC)c1 | 3.82 | 5.54 | –
10 | C=C1C(=O)[C@@]23C(=O)[C@@H]4OC[C@]5(C=CCC(C)(C)[C@@H]45)[C@@H]2CC[C@@H]1[C@H]3O | 2.78 | 4.01 | –
11 | C=C1C(=O)[C@@]23C(=O)[C@@H]4OC[C@]5([C@@H](OC(C)=O)CCC(C)(C)[C@@H]45)[C@@H]2CC[C@@H]1[C@H]3OC(=O)C12CC3CC(CC(C3)C1)C2 | 1.41 | 2.39 | –
12 | C=C1C(=O)[C@]23[C@H](OC(=O)C45CC6CC(CC(C6)C4)C5)[C@H]1CC[C@H]2[C@@]12CO[C@]3(O)[C@@H](O)[C@@H]1C(C)(C)CCC2=O | 1.43 | 1.91 | –
13 | C=C1C(=O)[C@@]23C(=O)[C@@H]4OC[C@]5(C(=O)CCC(C)(C)[C@@H]45)[C@@H]2CC[C@@H]1[C@H]3OC(=O)Cc1cc(OC)c(OC)c(OC)c1 | 2.6 | 5.07 | –
14 | C=C1C(=O)[C@@]23C(=O)[C@@H]4OC[C@]5(C(=O)CCC(C)(C)[C@@H]45)[C@@H]2CC[C@@H]1[C@H]3OC(=O)Cc1ccc(OC)c(OC)c1 | 1.81 | 2.58 | –
15 | C=C1C(=O)[C@@]23C(=O)[C@@H]4OC[C@]5(C(=O)CCC(C)(C)[C@@H]45)[C@@H]2CC[C@@H]1[C@H]3OC(=O)Cc1ccc(N(CCCl)CCCl)cc1 | 11.5 | > 10 | –
16 | C=C1C(=O)[C@@]23C(=O)[C@@H]4OC[C@]5(C(=O)CCC(C)(C)[C@@H]45)[C@@H]2CC[C@@H]1[C@H]3OC(=O)Cc1ccc(OC)cc1 | 3.06 | 4.6 | –
17 | C=C1C(=O)[C@]23[C@H](OC(=O)c4ccc(N(CCCl)CCCl)cc4)[C@H]1CC[C@H]2[C@@]12CO[C@]3(O)[C@@H](O)[C@@H]1C(C)(C)CCC2=O | 1.72 | 3.64 | –

Row | SMILES | IC50 (MDA-MB-231) [µM] | IC50 (HCC1806) [µM] | half-life at 100 µM [1] [h]
18 | C=C1C(=O)[C@]23[C@H](OC(=O)c4ccc(N(CCCl)CCCl)cc4)[C@H]1CC[C@H]2[C@@]12CO[C@]3(O)[C@@H](O)[C@@H]1C(C)(C)CC[C@@H]2O | 1.67 | 1.32 | –
19 | C=C1C(=O)[C@]23[C@H](OC(=O)c4ccc(N(CCCl)CCCl)cc4)[C@H]1CC[C@H]2[C@]12C=CCC(C)(C)[C@H]1[C@H](O)[C@@]3(O)OC2 | 1.09 | 1.4 | –
20 | C=C1C(=O)[C@]23[C@H](OC(=O)Cc4ccc(OC)cc4)[C@H]1CC[C@H]2[C@@]12CO[C@]3(O)[C@@H](O)[C@@H]1C(C)(C)CCC2=O | > 10 | > 10 | –
21 | C=C1C(=O)[C@]23[C@H](O)[C@H]1CC[C@H]2[C@@]12CO[C@]3(O)[C@@H](O)[C@@H]1C(C)(C)CCC2=O | 2.07 | 3.56 | –
22 | C=C1C(=O)[C@]23[C@H](OC(=O)Cc4ccc(OC)cc4)[C@H]1CC[C@H]2[C@]12C=CCC(C)(C)[C@H]1[C@H](O)[C@@]3(O)OC2 | > 10 | > 10 | –
23 | C=C1C(=O)[C@@]23C(=O)[C@@H]4OC[C@@]5([C@H]4C(C)(C)CC[C@@H]5O)[C@@H]2CC[C@@H]1[C@H]3OC(=O)c1ccc(N(CCCl)CCCl)cc1 | 1.83 | 1.61 | –
24 | C=C1C(=O)[C@]23[C@H](OC(=O)Cc4ccccc4Br)[C@H]1CC[C@H]2[C@@]12CO[C@]3(O)[C@@H](O)[C@@H]1C(C)(C)CCC2=O | 3.58 | 7.12 | –
25 | C=C1C(=O)[C@@]23C(=O)[C@@H]4OC[C@]5(C=CCC(C)(C)[C@@H]45)[C@@H]2CC[C@@H]1[C@H]3OC(=O)C12CC3CC(CC(C3)C1)C2 | 3.66 | 5.51 | –
26 | C=C1C(=O)[C@]23[C@H](OC(=O)Cc4cc(OC)c(OC)c(OC)c4)[C@H]1CC[C@H]2[C@]12C=CCC(C)(C)[C@H]1[C@H](O)[C@@]3(O)OC2 | > 10 | > 10 | –
27 | C=C1C(=O)[C@]23[C@H](OC(=O)/C=C/c4ccc(N(C)C)cc4)[C@H]1CC[C@H]2[C@@]12CO[C@]3(O)[C@@H](O)[C@@H]1C(C)(C)CCC2=O | 1.79 | 2.77 | –
28 | C=C1C(=O)[C@]23[C@H](O)[C@H]1CC[C@H]2[C@@]12CO[C@@]3(O)[C@@H](O)[C@@H]1C(C)(C)CC[C@@H]2OC(C)=O | 2.49 | 2.68 | –
29 | C=C1C(=O)[C@]23[C@H](OC(=O)C45CC6CC(CC(C6)C4)C5)[C@H]1CC[C@H]2[C@]12C=CCC(C)(C)[C@H]1[C@H](O)[C@@]3(O)OC2 | 2.42 | 2.61 | –
30 | C=C1C(=O)[C@]23[C@H](OC(=O)Cc4ccc(OC)c(OC)c4)[C@H]1CC[C@H]2[C@@]12CO[C@]3(O)[C@@H](O)[C@@H]1C(C)(C)CCC2=O | 8.43 | > 10 | –
31 | C=C1C(=O)[C@@]23C(=O)[C@@H]4OC[C@]5(C=CCC(C)(C)[C@@H]45)[C@@H]2CC[C@@H]1[C@H]3OC(=O)c1ccc(N(CCCl)CCCl)cc1 | 2.21 | 3.02 | –
32 | C=C1C(=O)[C@]23[C@H](OC(=O)Cc4ccc(N(CCCl)CCCl)cc4)[C@H]1CC[C@H]2[C@@]12CO[C@]3(O)[C@@H](O)[C@@H]1C(C)(C)CCC2=O | 7.29 | > 10 | –
33 | C=C1C(=O)[C@]23[C@H](O)[C@H]1CC[C@H]2[C@]12C=CCC(C)(C)[C@H]1[C@H](O)[C@@]3(O)OC2 | 0.87 | 0.91 | –
